Calls of active or inactive are those of the source. No cut-off for these calls is given here.
Assays:
Canis familiaris [1] = assay: Coronary vasodilatory activity as increase in coronary flow was determined in dogs after 0.1 mg/kg i.v. administration of the compound; assay type: functional, Canis lupus familiaris; conditions: route intravenous
Canis familiaris [2] = assay: Coronary vasodilatory activity as increase in coronary blood flow was determined in dogs after i.v. administration of the compound; assay type: functional, Canis lupus familiaris, Artery
[3] = Lethal effect after per os administration in mouse for 7 days; assay type: toxicity; conditions: in vivo, po
[4] = Partition coefficient (logP); assay type: physicochemical; conditions: octanol/water
Canis familiaris [5] = assay: Ability to increase coronary blood flow after intra duodenal administration at 3 mg/kg in dog; (SE +/- 24); assay type: functional, Canis lupus familiaris; conditions: route intraduodenal
Canis familiaris [6] = assay: Coronary vasodilatory activity as increase in coronary flow was determined in dogs after 0.1 mg/kg i.v. administration of the compound; (SE +/- 9); assay type: functional, Canis lupus familiaris; conditions: route intravenous
Cavia porcellus [7] = organism: Cavia porcellus; assay: Calcium antagonistic activity in isolated guinea pig Tenia coli specimens; (SE +/- 0.10); assay type: functional; conditions: read-out: pA2 (converted)
Canis familiaris [8] = assay: Ability to increase coronary blood flow after intra duodenal administration at 3 mg/kg in dog; (SE +/- 23); assay type: functional, Canis lupus familiaris, Blood/Heart; conditions: route intraduodenal
Cavia porcellus [9] = organism: Cavia porcellus; assay: Calcium antagonistic activity in isolated guinea pig Tenia coli specimens; (SE +/- 0.06); assay type: functional; conditions: read-out: pA2 (converted)
Canis familiaris [10] = assay: Ability to increase coronary blood flow after intra duodenal administration at 3 mg/kg in dog; (SE +/- 38); assay type: functional, Canis lupus familiaris; conditions: route intraduodenal
Canis familiaris [11] = assay: Coronary vasodilatory activity as increase in coronary flow was determined in dogs after 0.1 mg/kg i.v. administration of the compound; (SE +/- 6.6); assay type: functional, Canis lupus familiaris; conditions: route intravenous
Canis familiaris [12] = assay: Coronary vasodilatory activity as increase in coronary flow was determined in dogs after 0.1 mg/kg i.v. administration of the compound; (SE +/- 12.9); assay type: functional, Canis lupus familiaris; conditions: route intravenous
Canis familiaris [13] = assay: Coronary vasodilatory activity as increase in coronary flow was determined in dogs after 0.1 mg/kg i.v. administration of the compound; (SE +/- 0.1); assay type: functional, Canis lupus familiaris; conditions: route intravenous
Canis familiaris [14] = assay: Coronary vasodilatory activity as increase in coronary flow was determined in dogs after 0.1 mg/kg i.v. administration of the compound; (SE +/- 5); assay type: functional, Canis lupus familiaris; conditions: route intravenous
Canis familiaris [15] = assay: Ability to increase coronary blood flow after intra duodenal administration at 3 mg/kg in dog; (SE +/- 27); assay type: functional, Canis lupus familiaris; conditions: route intraduodenal
Cavia porcellus [16] = organism: Cavia porcellus; assay: Calcium antagonistic activity in isolated guinea pig Tenia coli specimens; (SE +/- 0.08); assay type: functional; conditions: read-out: pA2 (converted)
Canis familiaris [17] = assay: Coronary vasodilatory activity as increase in coronary flow was determined in dogs after 0.1 mg/kg i.v. administration of the compound; (SE +/- 7.4); assay type: functional, Canis lupus familiaris; conditions: route intravenous
Canis familiaris [18] = assay: Ability to increase coronary blood flow after intra duodenal administration at 3 mg/kg in dog; (SE +/- 21); assay type: functional, Canis lupus familiaris; conditions: route intraduodenal
Cavia porcellus [19] = organism: Cavia porcellus; assay: Calcium antagonistic activity in isolated guinea pig Tenia coli specimens; (SE +/- 0.11); assay type: functional; conditions: read-out: pA2 (converted)
Canis familiaris [20] = assay: Coronary vasodilatory activity as increase in coronary flow was determined in dogs after 0.1 mg/kg i.v. administration of the compound; (SE +/- 8.2); assay type: functional, Canis lupus familiaris; conditions: route intravenous
Canis familiaris [21] = assay: Coronary vasodilatory activity as increase in coronary flow was determined in dogs after 0.1 mg/kg i.v. administration of the compound; (SE +/- 22.2); assay type: functional, Canis lupus familiaris; conditions: route intravenous
Cavia porcellus [22] = organism: Cavia porcellus; assay: Calcium antagonistic activity in isolated guinea pig Tenia coli specimens; (SE +/- 0.13); assay type: functional; conditions: read-out: pA2 (converted)
Canis familiaris [23] = assay: Coronary vasodilatory activity as increase in coronary flow was determined in dogs after 0.1 mg/kg i.v. administration of the compound; (SE +/- 3.3); assay type: functional, Canis lupus familiaris; conditions: route intravenous
Canis familiaris [24] = assay: Coronary vasodilatory activity as increase in coronary flow was determined in dogs after 0.1 mg/kg i.v. administration of the compound; (SE +/- 13.1); assay type: functional, Canis lupus familiaris; conditions: route intravenous
Canis familiaris [25] = assay: Coronary vasodilatory activity as increase in coronary flow was determined in dogs after 0.1 mg/kg i.v. administration of the compound; (SE +/- 9.9); assay type: functional, Canis lupus familiaris; conditions: route intravenous
Canis familiaris [26] = assay: Coronary vasodilatory activity as increase in coronary flow was determined in dogs after 0.1 mg/kg i.v. administration of the compound; IA = Inactive; assay type: functional, organism-based; set-up: dose 0.1 mg/kg; conditions: Canis lupus familiaris; at 0.1 mg/kg
Canis familiaris [27] = assay: Coronary vasodilatory activity as increase in coronary flow was determined in dogs after 0.1 mg/kg i.v. administration of the compound; (SE +/- 27); assay type: functional, Canis lupus familiaris; conditions: route intravenous

## CCOP(=O)(Cc1ccc(-c2nc3ccccc3s2)cc1)NCCCl (stereo not drawn)
Canis familiaris [1]
  Max increase: 31.2%

## CCOP(=O)(Cc1ccc(-c2nc3ccccc3s2)cc1)N1CCCCCC1 (stereo not drawn)
Canis familiaris [1]
  Max increase: 49.3%

## CCOP(=O)(Cc1ccc(-c2nc3ccccc3s2)cc1)N1CCCC1=O (stereo not drawn)
Canis familiaris [2]
  CBF-ID75: 0.0414 mg/kg
[3]
  LD50 at 168 h: 2110 mg/kg
[4]
  logP: 3
Canis familiaris [5]
  Change in blood flow: 104%
Canis familiaris [6]
  Max increase: 124.1%
Cavia porcellus [7]
  Kb: 29.5 nM

## CCOP(=O)(Cc1ccc(-c2nc3ccccc3s2)cc1)NC(C)C (stereo not drawn)
Canis familiaris [1]
  Max increase: 73.2%

## Cc1ccc(-c2nc3ccccc3s2)cc1
[4]
  logP: 3.7

## CCOP(=O)(Cc1ccc(-c2nc3ccccc3s2)cc1)OC (stereo not drawn)
[4]
  logP: 3.5

## CCOC(=O)Cc1ccc(-c2nc3ccccc3s2)cc1
[4]
  logP: 3.2

## COc1ccc([C@@H]2Sc3ccccc3N(CCN(C)C)C(=O)[C@@H]2OC(C)=O)cc1.Cl [DILTIAZEM HYDROCHLORIDE]
Canis familiaris [2]
  CBF-ID75: 0.0771 mg/kg
Canis familiaris [8]
  Change in blood flow: 52%
[3]
  LD50 at 168 h: 508 mg/kg
Cavia porcellus [9]
  Kb: 50.1 nM

## CCOP(=O)(Cc1ccc(-c2nc3ccccc3s2)cc1)N1CC=CC1 (stereo not drawn)
Canis familiaris [1]
  Max increase: 80.6%

## CCOP(=O)(Cc1ccc(-c2nc3ccccc3s2)cc1)N1CCCCCC1=O (stereo not drawn)
Canis familiaris [2]
  CBF-ID75: 0.055 mg/kg
[3]
  LD50 at 168 h: > 1000 mg/kg
Canis familiaris [10]
  Change in blood flow: 69%
Canis familiaris [6]
  Max increase: 102.8%
Cavia porcellus [7]
  Kb: 34.7 nM

## CCOP(=O)(Cc1ccc(-c2nc3ccccc3s2)cc1)N1CCN(C)CC1 (stereo not drawn)
Canis familiaris [1]
  Max increase: 49.3%

## CCOP(=O)(Cc1ccc(-c2nc3ccccc3s2)cc1)NC1CC1 (stereo not drawn)
Canis familiaris [1]
  Max increase: 41.1%

## CCNP(=O)(Cc1ccc(-c2nc3ccccc3s2)cc1)OCC (stereo not drawn)
Canis familiaris [1]
  Max increase: 31.2%

## CCOP(=O)(Cc1ccc(-c2nc3ccccc3s2)cc1)N1CCCCC1=S (stereo not drawn)
Canis familiaris [11]
  Max increase: 24.7%

## CCOP(=O)(Cc1ccc(-c2nc3ccccc3s2)cc1)N1CCN(CC)C(=O)C1=O (stereo not drawn)
Canis familiaris [12]
  Max increase: 51.8%

## CCOP(=O)(Cc1ccc(-c2nc3ccccc3s2)cc1)N(CC)CC (stereo not drawn)
Canis familiaris [13]
  Max increase: 79.7%

## CCOP(=O)(Cc1ccc(-c2nc3ccccc3s2)cc1)OCC [FOSTEDIL]
Canis familiaris [2]
  CBF-ID75: 0.116 mg/kg
Canis familiaris [14]
  Max increase: 82.2%
[3]
  LD50 at 168 h: 1190 mg/kg
Canis familiaris [15]
  Change in blood flow: 92%
Cavia porcellus [16]
  Kb: 61.7 nM

## CCOP(=O)(Cc1ccc(-c2nc3ccccc3s2)cc1)N1CCSC1=S (stereo not drawn)
Canis familiaris [17]
  Max increase: 51.8%

## CCOP(=O)(Cc1ccc(-c2nc3ccccc3s2)cc1)N1CCCCC1=O (stereo not drawn)
Canis familiaris [18]
  Change in blood flow: 40%
Canis familiaris [2]
  CBF-ID75: 0.0552 mg/kg
[3]
  LD50 at 168 h: > 1000 mg/kg
Canis familiaris [17]
  Max increase: 101.9%
Cavia porcellus [19]
  Kb: 35.5 nM

## CCOP(=O)(Cc1ccc(-c2nc3ccccc3s2)cc1)N1CCCCC1 (stereo not drawn)
Canis familiaris [20]
  Max increase: 81.3%

## CCOP(=O)(Cc1ccc(-c2nc3ccccc3s2)cc1)N1CCOC1=O (stereo not drawn)
Canis familiaris [2]
  CBF-ID75: 0.0773 mg/kg
Canis familiaris [21]
  Max increase: 141.4%
[3]
  LD50 at 168 h: 671 mg/kg
Cavia porcellus [22]
  Kb: 25.7 nM

## CCOP(=O)(Cc1ccc(-c2nc3ccccc3s2)cc1)N1CCN(Cc2ccc(OC)c(OC)c2OC)CC1.O=C(O)/C=C/C(=O)O (stereo not drawn)
Canis familiaris [23]
  Max increase: 103.5%

## CCOP(=O)(Cc1ccc(-c2nc3ccccc3s2)cc1)N1CCCC1 (stereo not drawn)
Canis familiaris [24]
  Max increase: 101.1%

## CCOP(=O)(Cc1ccc(-c2nc3ccccc3s2)cc1)N1CCCCCCC1=O (stereo not drawn)
Canis familiaris [25]
  Max increase: 70.7%

## CCOP(=O)(Cc1ccc(-c2nc3ccccc3s2)cc1)N1CCCC1=S (stereo not drawn)
Canis familiaris [17]
  Max increase: 64.9%

## CCOP(=O)(Cc1ccc(-c2nc3ccccc3s2)cc1)N1CCOCC1 (stereo not drawn)
Canis familiaris [1]
  Max increase: 69%

## CCOP(=O)(Cc1ccc(-c2nc3ccccc3s2)cc1)NCc1ccccc1 (stereo not drawn)
Canis familiaris [26]
  Max increase: inactive

## CCOP(=O)(Cc1ccc(-c2nc3ccccc3s2)cc1)N1CCSC1=O (stereo not drawn)
Canis familiaris [27]
  Max increase: 155.3%
Canis familiaris [2]
  CBF-ID75: 0.0504 mg/kg
[3]
  LD50 at 168 h: > 1000 mg/kg
